{
  "source": "patent US20130017163A1",
  "about": "“HALOGENATED PHENOLS FOR DIAGNOSTICS, ANTIOXIDANT PROTECTION AND DRUG DELIVERY” (priority 2011, published 2013)",
  "key": {"[1]": {"test_system": "spontaneous tumors", "conditions": "10 mg by gavage; X-ray imaging about two hours after; mice with spontaneous tumors; same mice before treatment showed no foci", "excerpt": "As described above, oxidative foci or tumors may be identified by X-ray radiographic imaging of animals following administration of an indigogenic compound of the present invention. The radio-opaque indigo-like product formed and deposited with residence time in FROS-containing tumor tissues may then be detected.\nIn this example, female C3H/HeN mice were obtained as multiparous retired breeders (i.e., after 3 to 4 litters) that were positive for a mammary tumor virus. See, e.g., Sellitti, D. F., Tseng, Y-C., and Latham, K. R., “Effect of 3,5,3′-Triiodo-L-thyronine on the Incidence and Growth Kinetics of Spontaneous Mammary Tumors in C3H/HeN Mice,” Cancer Research, 41: 5015-19 (1981), the entire contents and disclosure of which are incorporated herein by reference. Mice showing spontaneous tumors were given 10 mg of 5-Iodo-Indoxyl-3′,5′-Diiodo-4′-hydroxy ether substrate (product of Example 4) by gavage. These mice were then subjected to X-ray imaging of the tumors about two hours after being fed the iodo-indigogenic compound. […] When developed, the X-ray film appears dark in areas where more transmission occurs and light in areas where less transmission occurs."}, "[2]": {"test_system": "sites of the wound or injury", "conditions": "mice with small injuries or wounds (cuts, scratches); data not shown"}, "[3]": {"assay": "Cleavage of C—C bond during oxidative dehalogenation reaction", "format": "physicochemical", "conditions": "oxidative or free radical-mediated dehalogenation", "excerpt": "It has also been discovered that other types of bonds or linkages may also be cleaved by oxidative or free radical-mediated dehalogenation of the phenol ring. For example, as described herein, it has now been observed that a carbonyl linkage, a nitrogen linkage, a sulfinyl linkage and possibly a C—C bond on the phenol ring may also be cleaved by the oxidative dehalogenation reaction. These bonds are also considered stable, and their cleavage in connection with the dehalogenation reaction is surprising as well. One caveat with the C—C bond or linkage is that depending on the particular starting compound structure and the substituents or groups attached to the halogenated phenol ring via the C—C bond, the C—C bond or linkage may or may not be generally cleaved during or following the dehalogenation reaction (see below). […] However, other compounds do become cleaved. It is important to note that whether a C—C bond of a particular starting compound is “cleavable,” or becomes cleaved, may not be all-or-nothing (i.e., the C—C bond may be considered non-cleavable even though a small or minute amount of cleavage may occur, and vice versa). Thus, the amount or percentage of cleavage may be partial with the alternatively cleaved or non-cleaved product being possibly undetected or minute. […]"}, "[4]": {"assay": "Spontaneous ether cleavage and deiodination in buffered aqueous solution exposed to sunlight", "format": "physicochemical", "conditions": "about 1 mM in carbonate buffer (pH 8.0), sunlight for about one hour", "excerpt": "In contrast to reductive deiodination, spontaneous dehalogenation (e.g., deiodination) of a halogentated phenol ring in the presence of an oxidizing agent(s) and/or free radical(s) with cleavage of a chemical linkage, such as an ether linkage, etc., between the phenol ring and a conjugated compound has not been described. According to the present invention, cleavage of the ether linkage between the aromatic rings of thyroid hormone may form visibly colored quinone and iodine-containing products in buffered aqueous solutions in vitro, and this ether cleavage reaction may be accelerated under basic pH conditions and with exposure to ionizing radiation or light. These conditions favor the increased formation of oxidizing agents and/or free radicals, which are believed to promote the reaction. […] A quinone and an iodotyrosine product are also formed by cleavage of the ether linkage during the reaction. According to embodiments of the present invention, a spontaneous reaction of dehalogenation and cleavage of a chemical bond is proposed for the targeted delivery and release of a drug compound at or to sites of inflammation or disease. This spontaneous reaction is further proposed as a basis for scavenging free radicals and/or oxidative agents (FROS) as well as for the creation of a detectable compound(s) that may be used for diagnostic purposes."}},
  "data": [
    {"smiles": "Oc1c(I)cc(Oc2c[nH]c3ccc(I)cc23)cc1I", "note": "[Example 4, 5-Iodo-Indolyl-3′,5′-Diiodo-4′-hydroxyl-p-Phenol Ether]", "values": [
      {"measurement": "radio-opaque tumor regions or foci by X-ray", "setting": "[1]", "value": "radio-opaque tumor regions or foci"},
      {"measurement": "X-ray detection at sites of wound or injury", "setting": "[2]", "value": "strong detection was observed at the sites of the wound or injury"}
    ]},
    {"smiles": "N[C@@H](Cc1ccc(O)c(I)c1)C(=O)O", "note": "[MIT, 3-iodo-4-hydroxy-L-phenylalanine]", "values": [
      {"measurement": "cleavage of C—C bond with the dehalogenation reaction", "setting": "[3]", "value": "generally not to be cleaved"}
    ]},
    {"smiles": "N[C@@H](Cc1cc(I)c(Oc2cc(I)c(O)c(I)c2)c(I)c1)C(=O)O", "note": "[thyroxine]", "values": [
      {"measurement": "cleavage of ether linkage with iodide release", "setting": "[4]", "value": "the ether linkage is broken spontaneously"}
    ]}
  ]
}
